Reference: PubChem BioAssay AID2060909 (Molecular Pharmacology Branch, DTP, NCI, 2025)
Where “and” joins values, the source holds several entries; their conditions need not be identical. Equal values may be shown once.

Test system: 362531-283-R-J2-PDC complex spheroid viability
Assay: Anticancer human tumor 362531-283-R-J2-PDC patient-derived colon adenocarcinoma cell line growth inhibition [RAS]
Details: for viability, T/C: stronger effect = lower value
Method in brief: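 Multi-cell-type spheroids: tumor cells plus HUVEC endothelial cells and mesenchymal stem cells. RAS-pathway inhibitors were combined with targeted agents, each dosed in half-log steps down from clinical Cmax, or from 10 microM when Cmax was unknown.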

[1] = curve of first compound, second compound 0.000949 µM
[2] = curve of first compound, second compound 0.003 µM
[3] = curve of first compound, second compound 0.00949 µM
[4] = curve of first compound, second compound 0.03 µM
[5] = curve of first compound, second compound 0.0949 µM
[6] = curve of first compound, second compound 0.3 µM
[7] = second compound 0.000949 µM, first compound 0.0316 µM
[8] = second compound 0.000949 µM, first compound 0.1 µM
[9] = second compound 0.000949 µM, first compound 0.316 µM
[10] = second compound 0.000949 µM, first compound 1 µM
[11] = second compound 0.003 µM, first compound 0.0316 µM
[12] = second compound 0.003 µM, first compound 0.1 µM
[13] = second compound 0.003 µM, first compound 0.316 µM
[14] = second compound 0.003 µM, first compound 1 µM
[15] = second compound 0.00949 µM, first compound 0.0316 µM
[16] = second compound 0.00949 µM, first compound 0.1 µM
[17] = second compound 0.00949 µM, first compound 0.316 µM
[18] = second compound 0.00949 µM, first compound 1 µM
[19] = second compound 0.03 µM, first compound 0.0316 µM
[20] = second compound 0.03 µM, first compound 0.1 µM
[21] = second compound 0.03 µM, first compound 0.316 µM
[22] = second compound 0.03 µM, first compound 1 µM
[23] = second compound 0.0949 µM, first compound 0.0316 µM
[24] = second compound 0.0949 µM, first compound 0.1 µM
[25] = second compound 0.0949 µM, first compound 0.316 µM
[26] = second compound 0.0949 µM, first compound 1 µM
[27] = second compound 0.3 µM, first compound 0.0316 µM
[28] = second compound 0.3 µM, first compound 0.1 µM
[29] = second compound 0.3 µM, first compound 0.316 µM
[30] = second compound 0.3 µM, first compound 1 µM
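Further: spheroids exposed to the agents for 7 days before readout.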
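Wherever viability, T/C is given: luminescence viability as percent of DMSO vehicle control wells.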

For `CC1(C)CCC(Nc2ncc(C(F)(F)F)c(-c3c[nH]c4c(P(C)(C)=O)c(C#N)ccc34)n2)CN1` (configuration not stated) + C#Cc1c(F)ccc2cc(O)cc(-c3ncc4c(N5CC6CCC(C5)N6)nc(OCC56CCCN5CC(F)C6)nc4c3F)c12, the IC50 (curve of first compound, second compound 0.0316 µM) was > 0.3 µM, the IC50 (curve of first compound, second compound 0.1 µM) was > 0.3 µM and the IC50 (curve of first compound, second compound 0.316 µM) was > 0.3 µM. For the same molecule, the IC50 (curve of first compound, second compound 1 µM) was > 0.3 µM, the IC50 (curve of first compound, second compound 3.16 µM) was > 0.3 µM and the IC50 (curve of first compound, second compound 10 µM) was > 0.3 µM. For the same molecule, the viability, T/C (second compound 0.0316 µM, first compound 0.000949 µM) was 97%, the viability, T/C (second compound 0.0316 µM, first compound 0.003 µM) was 95.6% and the viability, T/C (second compound 0.0316 µM, first compound 0.00949 µM) was 98.5%. The viability, T/C (second compound 0.0316 µM, first compound 0.03 µM) was 92.3%, the viability, T/C (second compound 0.0316 µM, first compound 0.0949 µM) was 107% and the viability, T/C (second compound 0.0316 µM, first compound 0.3 µM) was 114%. For the same molecule, the viability, T/C (second compound 0.1 µM, first compound 0.000949 µM) was 107%, the viability, T/C (second compound 0.1 µM, first compound 0.003 µM) was 85.5% and the viability, T/C (second compound 0.1 µM, first compound 0.00949 µM) was 90.4%. For the same molecule, the viability, T/C (second compound 0.1 µM, first compound 0.03 µM) was 95.8%, the viability, T/C (second compound 0.1 µM, first compound 0.0949 µM) was 101% and the viability, T/C (second compound 0.1 µM, first compound 0.3 µM) was 99.5%. It also gave a viability, T/C (second compound 0.316 µM, first compound 0.000949 µM) of 95.7%, a viability, T/C (second compound 0.316 µM, first compound 0.003 µM) of 88.2% and a viability, T/C (second compound 0.316 µM, first compound 0.00949 µM) of 88.8%. It also gave a viability, T/C (second compound 0.316 µM, first compound 0.03 µM) of 90.2%, a viability, T/C (second compound 0.316 µM, first compound 0.0949 µM) of 97.4% and a viability, T/C (second compound 0.316 µM, first compound 0.3 µM) of 93.8%. The viability, T/C (second compound 1 µM, first compound 0.000949 µM) was 80.5%, the viability, T/C (second compound 1 µM, first compound 0.003 µM) was 89.3% and the viability, T/C (second compound 1 µM, first compound 0.00949 µM) was 83.4%. The viability, T/C (second compound 1 µM, first compound 0.03 µM) was 93.5%, the viability, T/C (second compound 1 µM, first compound 0.0949 µM) was 80.9% and the viability, T/C (second compound 1 µM, first compound 0.3 µM) was 82.9%. For the same molecule, the viability, T/C (second compound 3.16 µM, first compound 0.000949 µM) was 68.4%, the viability, T/C (second compound 3.16 µM, first compound 0.003 µM) was 65.9% and the viability, T/C (second compound 3.16 µM, first compound 0.00949 µM) was 70.9%. For the same molecule, the viability, T/C (second compound 3.16 µM, first compound 0.03 µM) was 74%, the viability, T/C (second compound 3.16 µM, first compound 0.0949 µM) was 61.2% and the viability, T/C (second compound 3.16 µM, first compound 0.3 µM) was 71.1%. The viability, T/C (second compound 10 µM, first compound 0.000949 µM) was 56.4%, the viability, T/C (second compound 10 µM, first compound 0.003 µM) was 49.7% and the viability, T/C (second compound 10 µM, first compound 0.00949 µM) was 54.8%. The viability, T/C (second compound 10 µM, first compound 0.03 µM) was 55%, the viability, T/C (second compound 10 µM, first compound 0.0949 µM) was 41.4% and the viability, T/C (second compound 10 µM, first compound 0.3 µM) was 54.3%.

In the case of `Cc1nc(N2CCC3(CC2)COC(C)C3N)c(CO)nc1Sc1ccnc(N)c1Cl` (configuration not stated) + CCn1c(-c2cccnc2C(C)OC)c2c3cc(ccc31)N1CCOC(CC(NC(=O)C(C(C)C)N(C)C(=O)C3(F)CCN(C(=O)C#CC(C)(C)N(C)C)CC3)C(=O)N3CCCC(N3)C(=O)OCC(C)(C)C2)C1, the IC50 [1] is reported as > 10 µM, the IC50 [2] is reported as > 10 µM and the IC50 [3] is reported as > 10 µM. For the same molecule, the IC50 [4] was > 10 µM, the IC50 [5] was > 10 µM and the IC50 [6] was > 10 µM. For the same molecule, the viability, T/C [7] was 103%, the viability, T/C [8] was 103% and the viability, T/C [9] was 93%. The viability, T/C [10] was 102%, the viability, T/C (second compound 0.000949 µM, first compound 3.16 µM) was 80.6% and the viability, T/C (second compound 0.000949 µM, first compound 10 µM) was 72%. The viability, T/C [11] was 111%, the viability, T/C [12] was 103% and the viability, T/C [13] was 103%. For the same molecule, the viability, T/C [14] was 86.7%, the viability, T/C (second compound 0.003 µM, first compound 3.16 µM) was 87.3% and the viability, T/C (second compound 0.003 µM, first compound 10 µM) was 71.1%. The viability, T/C [15] was 102%, the viability, T/C [16] was 111% and the viability, T/C [17] was 92.1%. The viability, T/C [18] was 93.3%, the viability, T/C (second compound 0.00949 µM, first compound 3.16 µM) was 82.4% and the viability, T/C (second compound 0.00949 µM, first compound 10 µM) was 77.7%. The viability, T/C [19] was 102%, the viability, T/C [20] was 108% and the viability, T/C [21] was 95.5%. It also gave a viability, T/C [22] of 89.9%, a viability, T/C (second compound 0.03 µM, first compound 3.16 µM) of 82.5% and a viability, T/C (second compound 0.03 µM, first compound 10 µM) of 66.4%. For the same molecule, the viability, T/C [23] was 105%, the viability, T/C [24] was 94.9% and the viability, T/C [25] was 96.7%. The viability, T/C [26] was 77.5%, the viability, T/C (second compound 0.0949 µM, first compound 3.16 µM) was 85.6% and the viability, T/C (second compound 0.0949 µM, first compound 10 µM) was 74.7%. The viability, T/C [27] was 94.8%, the viability, T/C [28] was 117% and the viability, T/C [29] was 94.2%. For the same molecule, the viability, T/C [30] was 87.4%, the viability, T/C (second compound 0.3 µM, first compound 3.16 µM) was 76.7% and the viability, T/C (second compound 0.3 µM, first compound 10 µM) was 64.9%.

In the case of `C#Cc1c(F)ccc2cc(O)cc(-c3ncc4c(N5CC6CCC(C5)N6)nc(OCC56CCCN5CC(F)C6)nc4c3F)c12` (configuration not stated), the viability, T/C (compound 0.0316 µM) is reported as 99.9% [middle of 8 runs], the viability, T/C (compound 0.1 µM) is reported as 101% [middle of 8 runs] and the viability, T/C (compound 0.316 µM) is reported as 94.8% [middle of 8 runs]. The viability, T/C (compound 1 µM) was 79.1% [middle of 8 runs], the viability, T/C (compound 10 µM) was 54.6% [middle of 8 runs] and the IC50 (compound alone, run of 07/15/2024) was 6.73 µM and > 10 µM and 9.19 µM.

With `CCN1CCN(Cc2ccc(Nc3ncc(F)c(-c4cc(F)c5nc(C)n(C(C)C)c5c4)n3)nc2)CC1` + CCn1c(-c2cc(N3CCN(C)CC3)cnc2C(C)OC)c2c3cc(ccc31)-c1csc(n1)CC(NC(=O)C1CC1C)C(=O)N1CCCC(N1)C(=O)OCC(C)(C)C2 the IC50 [1] was 0.83 µM, the IC50 [2] was 0.714 µM and the IC50 [3] was 0.471 µM. For the same molecule, the IC50 [4] was 0.308 µM, the IC50 [5] was 0.112 µM and the IC50 [6] was < 0.00316 µM. For the same molecule, the viability, T/C (second compound 0.000949 µM, first compound 0.00316 µM) was 95.6%, the viability, T/C (second compound 0.000949 µM, first compound 0.01 µM) was 114% and the viability, T/C [7] was 99.2%. It also gave a viability, T/C [8] of 90.4%, a viability, T/C [9] of 69.9% and a viability, T/C [10] of 46.1%. It also gave a viability, T/C (second compound 0.003 µM, first compound 0.00316 µM) of 106%, a viability, T/C (second compound 0.003 µM, first compound 0.01 µM) of 110% and a viability, T/C [11] of 96.4%. The viability, T/C [12] was 87.8%, the viability, T/C [13] was 66.6% and the viability, T/C [14] was 43.1%. The viability, T/C (second compound 0.00949 µM, first compound 0.00316 µM) was 102%, the viability, T/C (second compound 0.00949 µM, first compound 0.01 µM) was 112% and the viability, T/C [15] was 105%. For the same molecule, the viability, T/C [16] was 100%, the viability, T/C [17] was 61.4% and the viability, T/C [18] was 28.4%. The viability, T/C (second compound 0.03 µM, first compound 0.00316 µM) was 102%, the viability, T/C (second compound 0.03 µM, first compound 0.01 µM) was 96.8% and the viability, T/C [19] was 93.2%. The viability, T/C [20] was 73.5%, the viability, T/C [21] was 50.1% and the viability, T/C [22] was 15.2%. The viability, T/C (second compound 0.0949 µM, first compound 0.00316 µM) was 86.9%, the viability, T/C (second compound 0.0949 µM, first compound 0.01 µM) was 81% and the viability, T/C [23] was 81.7%. For the same molecule, the viability, T/C [24] was 54.2%, the viability, T/C [25] was 10.9% and the viability, T/C [26] was 13.2%. For the same molecule, the viability, T/C (second compound 0.3 µM, first compound 0.00316 µM) was 48.4%, the viability, T/C (second compound 0.3 µM, first compound 0.01 µM) was 46.8% and the viability, T/C [27] was 40%. For the same molecule, the viability, T/C [28] was 13.3%, the viability, T/C [29] was 6.94% and the viability, T/C [30] was 11.1%.
